# In PubChem BioAssay AID1963982 (Molecular Pharmacology Branch, DTP, NCI, 2024):
# Tested on: 313798-341-R-J2-PDC spheroids, viability
# Experiment: Anticancer human tumor 313798-341-R-J2-PDC patient-derived cervical squamous cell carcinoma cell line growth inhibition [PI3K]
# Conditions: spheroids with HUVEC and MSC; for IC50: curve of first compound; for viability, T/C: stronger effect = lower value
# How it was run: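 Spheroid viability read-out. Co-cultures contained the tumor line plus HUVEC and human MSCs. Each agent was paired with a PI3K inhibitor (inavolisib, alpelisib, duvelisib, copanlisib) across half-log dilutions starting at clinical Cmax, or at 10 microM when Cmax was unknown.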
# [1] = second compound 0.0316 µM, first compound 0.0316 µM
# [2] = second compound 0.0316 µM, first compound 0.1 µM
# [3] = second compound 0.1 µM, first compound 0.0316 µM
# [4] = second compound 0.1 µM, first compound 0.1 µM
# [5] = second compound 0.316 µM, first compound 0.0316 µM
# [6] = second compound 0.316 µM, first compound 0.1 µM
# [7] = second compound 1 µM, first compound 0.0316 µM
# [8] = second compound 1 µM, first compound 0.1 µM
# [9] = second compound 3.16 µM, first compound 0.0316 µM
# [10] = second compound 3.16 µM, first compound 0.1 µM
# [11] = second compound 10 µM, first compound 0.0316 µM
# [12] = second compound 10 µM, first compound 0.1 µM
# 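Further: spheroids exposed to compounds for seven days.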
# 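Wherever viability, T/C is given: 100% = DMSO vehicle control viability.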
smiles,measurement,setting,value
C[C@@H](NC(=O)c1ncnc(N)c1Cl)c1ncc(C(=O)Nc2cc(C(F)(F)F)c(Cl)cn2)s1 + Cc1nc(NC(=O)N2CCCC2C(N)=O)sc1-c1ccnc(C(C)(C)C(F)(F)F)c1,IC50,second compound 0.0316 µM,> 10000 nM
same,IC50,second compound 0.1 µM,> 10000 nM
same,IC50,second compound 0.316 µM,> 10000 nM
same,IC50,second compound 1 µM,> 10000 nM
same,IC50,second compound 3.16 µM,> 10000 nM
same,IC50,second compound 10 µM,< 31.6 nM
same,"viability, T/C",[1],106%
same,"viability, T/C",[2],93.3%
same,"viability, T/C","second compound 0.0316 µM, first compound 0.316 µM",103%
same,"viability, T/C","second compound 0.0316 µM, first compound 1 µM",101%
same,"viability, T/C","second compound 0.0316 µM, first compound 3.16 µM",108%
same,"viability, T/C","second compound 0.0316 µM, first compound 10 µM",107%
same,"viability, T/C",[3],104%
same,"viability, T/C",[4],112%
same,"viability, T/C","second compound 0.1 µM, first compound 0.316 µM",92.8%
same,"viability, T/C","second compound 0.1 µM, first compound 1 µM",111%
same,"viability, T/C","second compound 0.1 µM, first compound 3.16 µM",115%
same,"viability, T/C","second compound 0.1 µM, first compound 10 µM",113%
same,"viability, T/C",[5],111%
same,"viability, T/C",[6],121%
same,"viability, T/C","second compound 0.316 µM, first compound 0.316 µM",104%
same,"viability, T/C","second compound 0.316 µM, first compound 1 µM",105%
same,"viability, T/C","second compound 0.316 µM, first compound 3.16 µM",110%
same,"viability, T/C","second compound 0.316 µM, first compound 10 µM",109%
same,"viability, T/C",[7],104%
same,"viability, T/C",[8],92%
same,"viability, T/C","second compound 1 µM, first compound 0.316 µM",89.7%
same,"viability, T/C","second compound 1 µM, first compound 1 µM",101%
same,"viability, T/C","second compound 1 µM, first compound 3.16 µM",98.6%
same,"viability, T/C","second compound 1 µM, first compound 10 µM",88%
same,"viability, T/C",[9],63.7%
same,"viability, T/C",[10],60%
same,"viability, T/C","second compound 3.16 µM, first compound 0.316 µM",69.2%
same,"viability, T/C","second compound 3.16 µM, first compound 1 µM",71.1%
same,"viability, T/C","second compound 3.16 µM, first compound 3.16 µM",64.9%
same,"viability, T/C","second compound 3.16 µM, first compound 10 µM",58.4%
same,"viability, T/C",[11],31.8%
same,"viability, T/C",[12],35.1%
same,"viability, T/C","second compound 10 µM, first compound 0.316 µM",38.2%
same,"viability, T/C","second compound 10 µM, first compound 1 µM",33.4%
same,"viability, T/C","second compound 10 µM, first compound 3.16 µM",39.6%
same,"viability, T/C","second compound 10 µM, first compound 10 µM",39.5%
Cn1ncnc1[C@H]1c2n[nH]c(=O)c3cc(F)cc(c23)N[C@@H]1c1ccc(F)cc1 + Cc1nc(NC(=O)N2CCCC2C(N)=O)sc1-c1ccnc(C(C)(C)C(F)(F)F)c1,IC50,second compound 0.0316 µM,> 100 nM
same,IC50,second compound 0.1 µM,> 100 nM
same,IC50,second compound 0.316 µM,> 100 nM
same,IC50,second compound 1 µM,> 100 nM
same,IC50,second compound 3.16 µM,> 100 nM
same,IC50,second compound 10 µM,< 0.316 nM
same,"viability, T/C","second compound 0.0316 µM, first compound 0.000316 µM",112%
same,"viability, T/C","second compound 0.0316 µM, first compound 0.001 µM",90%
same,"viability, T/C","second compound 0.0316 µM, first compound 0.00316 µM",97.6%
same,"viability, T/C","second compound 0.0316 µM, first compound 0.01 µM",96.1%
same,"viability, T/C",[1],93.9%
same,"viability, T/C",[2],95.7%
same,"viability, T/C","second compound 0.1 µM, first compound 0.000316 µM",98.7%
same,"viability, T/C","second compound 0.1 µM, first compound 0.001 µM",103%
same,"viability, T/C","second compound 0.1 µM, first compound 0.00316 µM",98.2%
same,"viability, T/C","second compound 0.1 µM, first compound 0.01 µM",97.8%
same,"viability, T/C",[3],92.6%
same,"viability, T/C",[4],87%
same,"viability, T/C","second compound 0.316 µM, first compound 0.000316 µM",97.7%
same,"viability, T/C","second compound 0.316 µM, first compound 0.001 µM",100%
same,"viability, T/C","second compound 0.316 µM, first compound 0.00316 µM",110%
same,"viability, T/C","second compound 0.316 µM, first compound 0.01 µM",90.7%
same,"viability, T/C",[5],102%
same,"viability, T/C",[6],80.8%
same,"viability, T/C","second compound 1 µM, first compound 0.000316 µM",92.2%
same,"viability, T/C","second compound 1 µM, first compound 0.001 µM",86.3%
same,"viability, T/C","second compound 1 µM, first compound 0.00316 µM",82.9%
same,"viability, T/C","second compound 1 µM, first compound 0.01 µM",72.5%
same,"viability, T/C",[7],79.1%
same,"viability, T/C",[8],71.5%
same,"viability, T/C","second compound 3.16 µM, first compound 0.000316 µM",59.6%
same,"viability, T/C","second compound 3.16 µM, first compound 0.001 µM",61%
same,"viability, T/C","second compound 3.16 µM, first compound 0.00316 µM",59%
same,"viability, T/C","second compound 3.16 µM, first compound 0.01 µM",54.9%
same,"viability, T/C",[9],59.6%
same,"viability, T/C",[10],49.4%
same,"viability, T/C","second compound 10 µM, first compound 0.000316 µM",35.9%
same,"viability, T/C","second compound 10 µM, first compound 0.001 µM",36.8%
same,"viability, T/C","second compound 10 µM, first compound 0.00316 µM",38.2%
same,"viability, T/C","second compound 10 µM, first compound 0.01 µM",34.2%
same,"viability, T/C",[11],33.2%
same,"viability, T/C",[12],28.3%
